Reference: ChEMBL document CHEMBL1134115, “Antimycobacterial activity of 9-sulfonylated/sulfenylated-6-mercaptopurine derivatives” (Bioorg Med Chem Lett, 2001)
In brackets after ≈: the same amount, converted by molar mass.

Columns and labels:
Format in all cases: functional
[1] = tested on: Mycobacterium tuberculosis; assay: Antimycobacterial activity against Mycobacterium tuberculosis strain resistant to rifampin (RMP)
[2] = tested on: Mycobacterium tuberculosis; assay: Antimycobacterial activity against Mycobacterium tuberculosis strain resistant to thiacetazone (TAC)
[3] = tested on: Mycobacterium tuberculosis; assay: Antimycobacterial activity against Mycobacterium tuberculosis strain resistant to isoniazid (INH)
[4] = tested on: Mycobacterium tuberculosis; assay: Antimycobacterial activity against Mycobacterium tuberculosis strain resistant to kanamycin (KM)
[5] = tested on: Mycobacterium tuberculosis; assay: Antimycobacterial activity against Mycobacterium tuberculosis strain resistant to cycloserine (CS)
[6] = tested on: Mycobacterium tuberculosis; assay: Antimycobacterial activity against Mycobacterium tuberculosis strain resistant to ethionamide (ETA)
[7] = tested on: Mycobacterium tuberculosis; assay: Antimycobacterial activity against Mycobacterium tuberculosis strain resistant to ethambutol (EMB)
[8] = tested on: Mycobacterium tuberculosis; assay: Antimycobacterial activity against Mycobacterium tuberculosis strain resistant to pyrazinamide (PZA)
[9] = tested on: Mycobacterium tuberculosis; assay: Antimycobacterial activity against Mycobacterium tuberculosis strain resistant to para-aminosalicilyc acid (PAS)

Work on O=S(=O)(c1ccc(Cl)cc1)n1cnc2c(S)ncnc21 yielded an MIC [1] of 12.5 µg/mL (≈ 38.3 µM), an MIC [2] of 6.25 µg/mL (≈ 19.1 µM) and an MIC [3] of 12.5 µg/mL (≈ 38.3 µM). The MIC [4] was 12.5 µg/mL (≈ 38.3 µM), the MIC [5] was 6.25 µg/mL (≈ 19.1 µM) and the MIC [6] was 25 µg/mL (≈ 76.5 µM). The MIC [7] was 6.25 µg/mL (≈ 19.1 µM), the MIC [8] was 12.5 µg/mL (≈ 38.3 µM) and the MIC [9] was 6.25 µg/mL (≈ 19.1 µM).

With O=[N+]([O-])c1ccc(Sn2cnc3c(S)ncnc32)cc1 the MIC [1] was 0.78 µg/mL (≈ 2.55 µM), the MIC [3] was 6.25 µg/mL (≈ 20.5 µM) and the MIC [4] was 1.56 µg/mL (≈ 5.11 µM). The MIC [7] was 0.78 µg/mL (≈ 2.55 µM).

Molecule Nc1cccc(S(=O)(=O)n2cnc3c(S)ncnc32)c1 has an MIC [1] of 12.5 µg/mL (≈ 40.7 µM), an MIC [2] of 12.5 µg/mL (≈ 40.7 µM) and an MIC [3] of 12.5 µg/mL (≈ 40.7 µM). For the same molecule, the MIC [4] was 12.5 µg/mL (≈ 40.7 µM), the MIC [5] was 12.5 µg/mL (≈ 40.7 µM) and the MIC [6] was 50 µg/mL (≈ 163 µM). It also gave an MIC [7] of 12.5 µg/mL (≈ 40.7 µM), an MIC [8] of 12.5 µg/mL (≈ 40.7 µM) and an MIC [9] of 12.5 µg/mL (≈ 40.7 µM).

CN(C)S(=O)(=O)n1cnc2c(=S)[nH]cnc21 was tested, and the MIC [1] was 6.25 µg/mL (≈ 24.1 µM), the MIC [2] was 3.13 µg/mL (≈ 12.1 µM) and the MIC [3] was 6.25 µg/mL (≈ 24.1 µM). For the same molecule, the MIC [4] was 6.25 µg/mL (≈ 24.1 µM), the MIC [5] was 3.13 µg/mL (≈ 12.1 µM) and the MIC [6] was 12.5 µg/mL (≈ 48.2 µM). The MIC [7] was 3.13 µg/mL (≈ 12.1 µM), the MIC [8] was 3.13 µg/mL (≈ 12.1 µM) and the MIC [9] was 3.13 µg/mL (≈ 12.1 µM).

CO[C@H]1/C=C/O[C@@]2(C)Oc3c(C)c(O)c4c(O)c(c(/C=N/N5CCN(C)CC5)c(O)c4c3C2=O)NC(=O)/C(C)=C\C=C\[C@H](C)[C@H](O)[C@@H](C)[C@@H](O)[C@@H](C)[C@H](OC(C)=O)[C@@H]1C [RIFAMPIN] was tested, and the MIC [1] was > 8 µg/mL, the MIC [2] was 0.125 µg/mL (≈ 0.152 µM) and the MIC [3] was 0.125 µg/mL (≈ 0.152 µM). For the same molecule, the MIC [4] was 0.125 µg/mL (≈ 0.152 µM), the MIC [5] was 0.125 µg/mL (≈ 0.152 µM) and the MIC [6] was 0.125 µg/mL (≈ 0.152 µM). The MIC [7] was 0.125 µg/mL (≈ 0.152 µM), the MIC [8] was 0.125 µg/mL (≈ 0.152 µM) and the MIC [9] was 0.125 µg/mL (≈ 0.152 µM).

CC(=O)Nc1ccc(S(=O)(=O)n2cnc3c(S)ncnc32)cc1 gave an MIC [1] of 12.5 µg/mL (≈ 35.8 µM), an MIC [2] of 6.25 µg/mL (≈ 17.9 µM) and an MIC [3] of 12.5 µg/mL (≈ 35.8 µM). For the same molecule, the MIC [4] was 12.5 µg/mL (≈ 35.8 µM), the MIC [5] was 6.25 µg/mL (≈ 17.9 µM) and the MIC [6] was 25 µg/mL (≈ 71.6 µM). The MIC [7] was 6.25 µg/mL (≈ 17.9 µM), the MIC [8] was 6.25 µg/mL (≈ 17.9 µM) and the MIC [9] was 6.25 µg/mL (≈ 17.9 µM).
